Experimental findings from patent publication US5614520A, “2-arylthiazole derivatives and pharmaceutical composition thereof” (priority 1990, dated 1997) are described below.

One assay concerns the target T1, xanthine oxidase (Bos taurus, UniProt P80457).
T1 construct: purchased Sigma Chemical Company; host or cells: butter milk
In words: In vitro determination of xanthine oxidase (XOD) inhibition. The format is biochemical. The conditions noted are these: xanthine oxidase from butter milk, xanthine substrate, pH 7.4, 37° C. The method, then: (1) Preparation of test compounds:
Test compounds (compounds of Ex. No. listed in Table 1) were dissolved in dimethylsulfoxide and diluted with a 50 mM phosphate buffer to prepare aqueous solutions respectively having predetermined concentrations.
The inhibition rate was determined by the following equation: [formula]
The inhibition (%) was determined on each test compound prepared according to (1), and the IC50 value on the xanthine oxidase (XOD) inhibition was calculated from the value of inhibition.

The subject of the next assay is serum uric acid. In words: Determination of oral administration: lowering of serum uric acid in mice. Format: in vivo, ICR male mice. Particulars: Mus musculus, read-out: Activity of lowering uric acid. As for the experimental part:
Test compounds suspended in a 5% gum arabic solution was forcibly administered by oral administration (compounds of Ex. No. of Table 2, dose: 1 mg/kg) to ICR male mice (age: about 7 weeks) (one group: 6 mice) by means of an oral probe. 2 hours after the administration, thoracotomy was conducted under etherization to collect blood from the heart, and serum was removed by a conventional process. The serum uric acid was measured by a biochemical automatic analyzer (Flexigem; Electro-Nucleonics, Inc.) by using a uric acid measurement kit (UA reagent; International Reagent) to determine the percentage of the lowering of uric acid. [formula]

Setting [1] is: ICR male mice, oral, 1 mg/kg, 2 hours after administration, serum.

The structures appear in SMILES notation. Where two headings read alike, the source gives them in different places.

T1 sequence (P80457 whole entry): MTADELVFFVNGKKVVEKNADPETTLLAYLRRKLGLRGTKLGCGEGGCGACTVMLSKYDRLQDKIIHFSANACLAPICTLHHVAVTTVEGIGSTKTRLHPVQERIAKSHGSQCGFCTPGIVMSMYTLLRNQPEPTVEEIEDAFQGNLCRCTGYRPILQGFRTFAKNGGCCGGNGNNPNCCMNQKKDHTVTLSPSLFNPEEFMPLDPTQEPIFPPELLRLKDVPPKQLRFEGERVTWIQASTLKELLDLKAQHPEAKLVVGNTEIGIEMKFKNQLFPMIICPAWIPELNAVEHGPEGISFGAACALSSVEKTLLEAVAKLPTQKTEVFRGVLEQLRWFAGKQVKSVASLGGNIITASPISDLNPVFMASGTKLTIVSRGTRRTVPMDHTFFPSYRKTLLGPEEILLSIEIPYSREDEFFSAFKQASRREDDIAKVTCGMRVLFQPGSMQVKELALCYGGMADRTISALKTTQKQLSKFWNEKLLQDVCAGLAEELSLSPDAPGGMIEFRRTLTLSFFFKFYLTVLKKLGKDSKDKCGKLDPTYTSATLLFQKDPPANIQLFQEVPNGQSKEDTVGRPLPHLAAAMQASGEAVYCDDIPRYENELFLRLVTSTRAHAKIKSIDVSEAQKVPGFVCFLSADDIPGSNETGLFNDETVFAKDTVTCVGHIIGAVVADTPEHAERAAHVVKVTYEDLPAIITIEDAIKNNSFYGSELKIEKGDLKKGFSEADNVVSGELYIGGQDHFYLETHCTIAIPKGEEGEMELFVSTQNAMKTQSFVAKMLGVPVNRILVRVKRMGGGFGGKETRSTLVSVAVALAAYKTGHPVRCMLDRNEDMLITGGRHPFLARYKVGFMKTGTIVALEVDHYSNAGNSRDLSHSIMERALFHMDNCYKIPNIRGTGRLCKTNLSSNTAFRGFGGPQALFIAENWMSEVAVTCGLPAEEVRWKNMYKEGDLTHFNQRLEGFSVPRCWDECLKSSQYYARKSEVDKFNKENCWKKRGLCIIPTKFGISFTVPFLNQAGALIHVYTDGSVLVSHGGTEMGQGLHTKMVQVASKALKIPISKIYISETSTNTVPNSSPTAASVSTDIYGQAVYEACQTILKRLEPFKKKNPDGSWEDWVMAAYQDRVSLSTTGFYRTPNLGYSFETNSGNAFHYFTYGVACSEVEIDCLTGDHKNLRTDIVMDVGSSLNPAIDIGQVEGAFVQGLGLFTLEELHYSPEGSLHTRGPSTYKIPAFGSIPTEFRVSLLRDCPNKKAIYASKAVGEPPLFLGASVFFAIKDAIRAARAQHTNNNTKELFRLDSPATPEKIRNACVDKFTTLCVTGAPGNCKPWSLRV

The term IC50 denotes the midpoint of a concentration-inhibition curve. The compound `Cc1nc(-c2ccc(OCC(C)C)c(C=O)c2)sc1C(=O)O` [Example 86, 2-(3-formyl-4-isobutyloxyphenyl)-4-methyl-5-thiazolecarboxylic acid] returned an IC50 on xanthine oxidase of 0.51 nM. Besides, in the assay with serum uric acid (setting [1]), the inhibition in vivo at 1 mg/kg turned out to be 72%.

In turn, `Cc1nc(-c2cc(Cl)c(OCC(C)C)c(Cl)c2)sc1C(=O)O` [Example 69, 2-(3,5-Dichloro-4-isobutyloxyphenyl)-4-methyl-5-thiazolecarboxylic acid] returned an IC50 at xanthine oxidase of 1.5 nM. Also, the inhibition in vivo at 1 mg/kg in the assay on serum uric acid (setting [1]) is 55%.

On xanthine oxidase, `CCC(CC)COc1ccc(-c2nc(C)c(C(=O)O)s2)cc1Cl` [Example 53, 2-(3-Chloro-4-(2-ethylbutyloxy)phenyl)-4-methYl-5-thiazolecarboxylic acid] returned an IC50 of 2.7 nM. The inhibition in vivo at 1 mg/kg in the assay on serum uric acid (setting [1]) turned out to be 29%.

On xanthine oxidase, `Cc1nc(-c2ccc(N3CCOCC3)c(C#N)c2)sc1C(=O)O` [Example 81, 2-(3-Cyano-4-morpholinophenyl)-4-methyl-5-thiazolecarboxylic acid] returned a 50% inhibitory concentration (IC50) of 1.7 nM. Also, in the assay on serum uric acid (setting [1]), the inhibition in vivo at 1 mg/kg was 91%.

For `Cc1nc(-c2ccc(OCC(C)C)c(Br)c2)sc1C(=O)O` [Example 63, 2-(3-bromo-4-isobutyloxyphenyl)-4-methyl-5-thiazolecarboxylic acid], the IC50 at xanthine oxidase was 0.94 nM. In addition, in the assay on serum uric acid (setting [1]), the inhibition in vivo at 1 mg/kg turned out to be 35%.

`Cc1nc(-c2cc(C(C)(C)C)c(O)c(C(C)(C)C)c2)sc1C(=O)O` [Example 29, 2-(3,5-Di-t-butyl-4-hydroxyphenyl)-4-methyl-5-thiazolecarboxylic acid] had an IC50 against xanthine oxidase of 65 nM.

As to `Cc1nc(-c2ccc(OCC(C)(C)C)c(C(F)(F)F)c2)sc1C(=O)O` [Example 84, 4-Methyl-2-(4-neopentyloxy-3-trifluoromethylphenyl)-5-thiazolecarboxylic acid], at xanthine oxidase, 2.9 nM corresponded to half-maximal inhibition (IC50). In addition, in the assay on serum uric acid (setting [1]), the inhibition in vivo at 1 mg/kg was found to be 80%.

For the compound `Cc1nc(-c2ccc(OCCCC3CCCCC3)cc2)sc1C(=O)O` [Example 8, 2-(4-(3-Cyclohexylpropyloxy)phenyl)-4-methyl-5-thiazolecarboxylic acid], half-maximal inhibition at xanthine oxidase (IC50) was put at 3.2 nM. In the assay on serum uric acid (setting [1]), the inhibition in vivo at 1 mg/kg worked out at 28%.

At xanthine oxidase, `Cc1nc(-c2ccc(OCc3ccc(Cl)cc3)cc2)sc1C(=O)O` [Example 9, 2-(4-(4-Chlorobenzyloxy)phenyl)-4-methyl-5-thiazolecarboxylic acid] gave an IC50 of 17 nM.

Consider `Cc1nc(-c2cc([N+](=O)[O-])ccc2Cl)sc1C(=O)O` [Example 24, 2-(2-Chloro-5-nitrophenyl)-4-methyl-5-thiazolecarboxylic acid], for which the midpoint of inhibition at xanthine oxidase, the IC50, lay at 67 nM.

`CCN(CC)c1ccc(-c2nc(C)c(C(=O)O)s2)cc1[N+](=O)[O-]` [Example 37]: half-maximal inhibition on xanthine oxidase (IC50) required 1.8 nM. In addition, the inhibition in vivo at 1 mg/kg in the assay on serum uric acid (setting [1]) turned out to be 74%.

`Cc1nc(-c2ccc(N3CCCCC3)c(C#N)c2)sc1C(=O)O` [Example 82, 2-(3-Cyano-4-piperidinophenyl)-4-methyl-5-thiazolecarboxylic acid] registered an IC50 at xanthine oxidase of 2.7 nM. Also, the inhibition in vivo at 1 mg/kg in the assay on serum uric acid (setting [1]) is 93%.

For `Cc1nc(-c2cccc(C(=O)O)c2)sc1C(=O)O` [Example 13, 2-(3-carboxyphenyl)-4-methyl-5-thiazolecarboxylic acid], the IC50 against xanthine oxidase stood at 320 nM.

On to `Cc1nc(-c2ccc(N(C)C)cc2)sc1C(=O)O` [Example 18, 2-(4-(N,N-dimethylamino)phenyl)-4-methyl-5-thiazolecarboxylic acid], for which 43 nM corresponded to half-maximal inhibition at xanthine oxidase (IC50). Also, in the assay with serum uric acid (setting [1]), the inhibition in vivo at 1 mg/kg is 22%.

`CCC(CC)COc1ccc(-c2nc(C)c(C(=O)O)s2)cc1[N+](=O)[O-]` [Example 42, 2-(4-(2-Ethylbutyloxy)-3-nitrophenyl)-4-methyl-5-thiazolecarboxylic acid] displayed an IC50 against xanthine oxidase of 2 nM. Moreover, the inhibition in vivo at 1 mg/kg in the assay with serum uric acid (setting [1]) came out at 75%.

Take `Cc1nc(-c2cccc(C(=O)c3ccccc3)c2)sc1C(=O)O` [Example 19, 2-(3-Benzoylphenyl)-4-methyl-5-thiazolecarboxylic acid]: the IC50 against xanthine oxidase came out at 12 nM.

Regarding `Cc1nc(-c2ccc(OCc3ccc(F)cc3)cc2)sc1C(=O)O` [Example 10, 2-(4-(4-Fluorobenzyloxy)phenyl)-4-methyl-5-thiazolecarboxylic acid], the IC50 on xanthine oxidase is 31 nM.

On to `Cc1nc(-c2ccc(OC(C)C)cc2)sc1C(=O)O` [Example 2, 2-(4-isopropoxyphenyl)-4-methyl-5-thiazolecarboxylic acid], for which the IC50 against xanthine oxidase is 28 nM.

Consider `Cc1nc(-c2ccc(C(=O)Nc3ccc(Cl)cc3)cc2)sc1C(=O)O` [Example 16, 2-(4-(4-Chlorophenylcarbamoyl)phenyl)-4-methyl-5-thiazolecarboxylic acid], for which the inhibition in vivo at 1 mg/kg in the assay with serum uric acid (po, 2 h) came to 21%.

For the compound `CC(=O)c1cc(-c2nc(C)c(C(=O)O)s2)ccc1O` [Example 25, 2-(3-Acetyl-4-hydroxyphenyl) -4-methyl-5-thiazolecarboxylic acid], 300 nM corresponded to half-maximal inhibition on xanthine oxidase (IC50).

For the compound `O=C(O)c1sc(-c2cccc(Cl)c2)nc1O` [Example 21, 2-(3-chlorophenyl)-4-hydroxy-5-thiazolecarboxylic acid], inhibition on xanthine oxidase was half-maximal at 720 nM (IC50).

Consider `Cc1nc(-c2ccc(OC(C)C)c(C#N)c2)sc1C(=O)O` [Example 76, 2-(3-cyano-4-isopropoxyphenyl)-4-methyl-5-thiazolecarboxylic acid], for which the inhibition in vivo at 1 mg/kg with serum uric acid (po, 2 h) was found to be 86%.

In the case of `Cc1nc(-c2ccc(OCC(C)C)c([N+](=O)[O-])c2)sc1C(=O)OCC(C)C` [Example 48, Isobutyl 2-(4-isobutyloxy-3-nitrophenyl)-4-methyl-5-thiazolecarboxylate], in the assay on serum uric acid (setting [1]), the inhibition in vivo at 1 mg/kg was found to be 88%.

Take `Cc1nc(-c2ccc(OCC(C)C)c(C#N)c2)sc1C(=O)O` [Example 77, 2-(3-Cyano-4-isobutyloxyphenyl)-4-methyl-5-thiazolecarboxylic acid]: the inhibition in vivo at 1 mg/kg with serum uric acid (po, 2 h) was 95%.

On xanthine oxidase, `Cc1cc(-c2nc(C)c(C(=O)O)s2)cc(C)c1O` [Example 30, 2-(3,5-Dimethyl-4-hydroxyphenyl)-4-methyl-5-thiazolecarboxylic acid] yielded an IC50 of 42 nM.

The compound `COc1nc(-c2ccc(OC(C)C)cc2)sc1C(=O)O` [Example 23, 2-(4-isopropoxyphenyl)-4-methoxy-5-thiazolecarboxylic acid] returned an IC50 against xanthine oxidase of 130 nM.

On to `Cc1nc(-c2cccc([N+](=O)[O-])c2)sc1C(=O)O` [Example 3, 4-methyl-2-(3-nitrophenyl)-5-thiazolecarboxylic acid], for which the IC50 against xanthine oxidase came to 14 nM.

`Cc1nc(-c2ccc(OC(C)C)c([N+](=O)[O-])c2)sc1C(=O)OC(C)C` [Example 47, isopropyl 2-(4-isopropoxy-3-nitrophenyl)-4-methyl-5-thiazolecarboxylate]: the inhibition in vivo at 1 mg/kg with serum uric acid (setting [1]) was determined as 92%.

On xanthine oxidase, `Cc1nc(-c2ccc(C(=O)N(C)c3ccc(Cl)cc3)cc2)sc1C(=O)O` [Example 17, 2-(4-(N-(4-chlorophenyl)-N-methylcarbamoyl)phenyl)-4-methyl-5-thiazolecarboxylic acid] yielded an IC50 of 500 nM.

In the case of `Cc1nc(-c2ccc([N+](=O)[O-])cc2)sc1C(=O)O` [Example 4, 4-methyl-2-(4-nitrophenyl)-5-thiazolecarboxylic acid], half-maximal inhibition at xanthine oxidase (IC50) required 900 nM.

In the case of `Oc1ncnc2[nH]ncc12` [allopurinol, reference compound], in the assay with serum uric acid (po, 2 h), the inhibition in vivo at 1 mg/kg is 73%.
